Earlier results in patent US20140142181A1, “TREATING AND INHIBITING RECURRENCE OF MUSCLE CRAMPS” (priority 2012, published 2014).

Tests used:
[1] = received by USFDA; quinine use
cramping = conditions: 39 Division I baseball players; creatine supplementation during training and competition

Cramping, creatine group versus non-creatine group (cramping)	SMILES	Deaths among reported adverse events [1]	Reports of adverse events with serious outcomes [1]
–	C=C[C@H]1C[N@@]2CC[C@H]1C[C@H]2[C@H](O)c1ccnc2ccc(OC)cc12 [quinine, Quinine]	93	665
no significant difference	CN(CC(=O)O)C(=N)N [creatine]	–	–
